# Key:
# CGRP = CGRP enzyme immunoassay of conditioned medium of PC-12 cells; format: cell-based, rat; conditions: 0.01%, 24 h, p<0.05
# Protocol: Cell culture: PC-12 cells were cultured in FK12 medium supplemented with nerve growth factor according to routine methods known in the art. PC12 cells are derived from a rat pheochromocytoma and terminally differentiate on exposure to nerve growth factor. Once the cells begin to differentiate, they express CGRP. Cultures were incubated in medium containing L-4 Thiazolylalanine for another 24 h. after which conditioned medium was collected and assayed for the presence of CGRP.
# CGRP Immunoassay: The presence of CGRP in the test samples was assayed by a sandwich ELISA immunoassay kit. Briefly, test and control samples of conditioned media are mixed with an anti-CGRP antibody conjugated to acetylcholinesterase (the “tracer antibody”), and the mixtures added to plates pre-coated with a monoclonal anti-CGRP antibody (binding to a different epitope of CGRP than the tracer antibody) that had been blocked for non-specific binding. The samples were incubated in the plates and the plates washed and the bound acetylcholinesterase activity determined using Ellman's reagent according to routine methods known in the art. The absorbance of the reagent is directly proportional to the concentration of CGRP in the sample.
# The percent change in CGRP expression due to L-4 Thiazolylalanine treatment was calculated according to the formula: […]
# [1] = test system: LOXL1 regulatory elements (promoter region of the LOXL1 gene); experiment: LOXL1 promoter luciferase-reporter assay in transfected fibrosarcoma cells; format: cell-based, human; conditions: 1 μg/ml, 24 h, HTI080 cells, triplicate tests, p<0.05
# Source text: Vector construction, transfection and expression: The promoter region of the LOXL1 gene was isolated and cloned into the pGL3 Luciferase reporter plasmid (Promega) by standard methods known in the art and according to manufacturer's instructions. The LOXL1/pGL3 vector and the control vector pRL-NULL (Promega), containing no regulatory elements, were contransfected into the human fibrosarcoma line HTI080 using LipofectAMINE™ LTX Reagent (Invitrogen) according to manufacturer's directions.
# Transfected cells were allowed to recover for 24 h. The culture medium was then replaced with fresh medium containing various concentrations of L-4 Thiazolylalanine, and the transfected cells cultured for an additional 24 h.
# The cultures were subsequently washed with PBS and exposed to 100 μl cell lysis buffer/25 cm^2 culture area and gently shaken at room temperature for 30 min. The culture flasks containing the cell lysate were then immediately placed at −80° C.
# The activity of the reporter gene, firefly luciferase, was determined according to the manufacturer's instructions (Dual-Luciferase® Reporter Assay System, Promega). Briefly, the activity of the reporter gene is determined relative to that of a control vector encoding a second luciferase gene, that from Renilla reniformis. […]
# β1 integrin = experiment: Whole cell ELISA of β1 integrin expression in human dermal fibroblasts; format: cell-based; conditions: 0.01% (w/v), 24 hours
# Protocol: Cell culture: Human dermal fibroblasts (Cascade Biologics) were cultured in growth medium (DMEM, 5% FBS, 1% L-Glut, and 1% antibiotics) overnight in 60 mm dishes at 3.5×10^5 cells/ml. Cells were treated with test active or vehicle control diluted in growth medium and incubated for 24 hours at 37° C.
# Whole cell ELISA: A B1 integrin kit from Chemicon International was used to assay the expression of B1 integrin on the cell surface following treatment with L-4 thiazolylalanine Medium was aspirated and plates were incubated at 37° C. with Cell Dissociation Buffer (provided with the kit) for 20-25 minutes, cells were centrifuged and resuspended in DMEM without supplements. 100 μl of the cell suspension was added to microtiter plates precoated with a murine anti-human β1 antibody (Chemicon International) that had been blocked for non-specific binding, and the plates incubated at 37° C. for 2 h. Adherent cells were quantitated by a cell staining kit (Chemicon International) according to manufacturer's instructions. Briefly, plates were washed in PBS and adherent cells stained by incubation for 5 min. at room temperature in the kit staining solution. […] Extraction buffer was then added to each well and the plate read at 570 nm on a spectrophotometer.
# The percent change in β1 integrin expression was calculated according to the formula: […]
# human skin = experiment: Human clinical patch study, histology of skin samples (Trichrome collagen and Alcian blue GAG staining); format: in vivo; conditions: 0.01% solution, topical semi-occlusive patch on outer forearm, 15 applications
# Protocol: In order to ascertain the effect of L-4 thiazolylalanine on collagen levels in human skin in vivo, a test was conducted on about 25 women aged 35-65 years. This human clinical study was approved by an Institutional Review Board and informed consent from the subjects was obtained prior to commencement of the study. The study was conducted in accordance with Title 21 of the Code of Federal Regulations, parts 50 and 56.
# A solution of 0.01% L-4 Thiazolylalanine was made up in a vehicle of Propylene glycol:Ethanol:Water at a ratio of 70:20:10. The experimental design of the test was as follows: Thiazolylalanine solution or the vehicle solution without thiazolylalanine was applied to the outer forearm on a 2×2 area of skin (@2 mg/cm2) under a semi-occlusive patch for 24 hours, after which the patch was removed and a fresh patch was applied. This was repeated for 5 days (Monday-Friday), then subjects were rested for the weekend. Patch application was continued in the same manner for the next two weeks, for a total of 15 applications. […] The intensity of the collagen and GAG staining was assessed visually under the microscope. […]
# calcineurin = experiment: Ex-vivo DiFMUP phosphatase assay of calcineurin activity; format: biochemical
# Protocol: Ex-vivo phosphatase assay: The modulation of calcineurin activity was monitored using a DiFMUP (6,8-difluoro-7-hydroxy-4-methylcoumarin phosphate) phosphatase assay well characterized in the art (see, e.g., Wegner et al., 2007, Methods Mol. Biol. 365:61-69, hereby incorporated by reference in its entirety). Dephosphorylation of DiFMUP leads to the formation of a highly fluorescent and stable product: […].
# Varying concentrations of L-4 Thiazolylalanine were added to a reaction buffer consisting of 50 mM Tris-HCL, pH 7.4, 0.0125% BSA, 0.1 mM CaCl, 400 U/ml calmodulin and 1 mM NiCl. The L-4 Thiazolylalanine/reaction buffer mixture was incubated at 37° C. for 30 min. DiFMU substrate was then added to a concentration of 10 μM, and the mixture returned to 37° C. incubation for a further 15 min. Fluorescence intensity was determined on a Spectrofluorometer.
# fibronectin = experiment: Competitive inhibition ELISA of fibronectin in conditioned media of human dermal fibroblasts; format: cell-based; conditions: 72 hours, P < 0.05
# Protocol: Cell culture: Human dermal fibroblasts (Cascade Biologics) were cultured in 12-well tissue culture plates in growth medium (DMEM, 5% FBS, 1% L-Glut, and 1% antibiotics) and incubated for 24 hours at 37° C. Cells treated with test active diluted in growth medium and incubated for 72 hours at 37° C., after which conditioned media was collected and assayed for the presence of fibronectin. […].
# Competitive inhibition ELISA: The presence of fibronectin in the test samples was assayed by a competitive ELISA kit (Chemicon International). Briefly, test and control samples of conditioned media were incubated with a HRP-conjugated, rabbit polyclonal anti-human fibronectin antibody at room temperature for about 10 minutes. The sample/antibody mixture was then transferred to a microtiter plate precoated with a standard amount of human fibronectin that had been blocked for non-specific binding. The plate was incubated for one hour at room temperature, followed by a PBS wash and detection of bound antibody (i.e., detection of bound HRP) by routine methods known in the art. The amount of bound antibody is inversely proportional to the amount of fibronectin in the sample.
# The percent change in fibronectin expression due to L-4 Thiazolylalanine treatment was calculated according to the formula: […]
smiles,measurement,setting,value
"N[C@@H](Cc1cscn1)C(=O)O [L-4 Thiazolylalanine, L-4-thiazolylalanine]",increase in expression of CGRP,CGRP,69.93%
same,increase in expression of the reporter gene,[1],57%
same,increase in the expression of B1 integrin,β1 integrin,225%
same,subjects with an increase in GAG staining relative to skin treated with the vehicle,human skin; 13/21 subjects,62%
same,subjects with increased collagen staining in treated sites versus vehicle treated site,human skin; 18/21 subjects,86%
same,increase of calcineurin activity,calcineurin; 0.0001% weight/volume (lowest concentration tested),6%
same,decrease of calcineurin activity,calcineurin; 0.001% concentration,11%
same,decrease of calcineurin activity,calcineurin; 0.01% concentration,63%
same,"IC-50 (calcineurin activity), estimated",calcineurin; estimated,~0.064%
same,Percent Change in fibronectin expression,fibronectin; Concentration 0.00001%,54.34% (P < 0.05)
same,Percent Change in fibronectin expression,fibronectin; Concentration 0.0001%,31.03% (P < 0.05)
same,Percent Change in fibronectin expression,fibronectin; Concentration 0.001%,36.11% (P < 0.05)
